We go through one molecule from patent US20240350446A1, “CAROTENOID SOLUTIONS AND USES THEREOF” (L.E.A.F. HOLDINGS GROUP LLC, priority 2020, published 2024).

A short description of data set [1]: Properties of TSC aqueous formulation (dissolution, crash-out on dilution/storage, pH, osmolality). The data set is classed as physicochemical. Here is the method: (§1) 1650 grams of sucrose was added to 51.59 Kg of WFI with mixing in a Nalgene tank containing a tank liner. 2475 grams of PEG400 was then added to the tank with mixing. After the sucrose and PEG400 were completely dissolved, 110 grams of TSC was added and the solution was mixed at room temperature for a minimum of 30 minutes or until the solution was clear. The solution was then filtered through a 0.45 μm glass fiber prefilter+0.2 μm sterile filter at a pump speed of 700 mL/min into a 100 L Biobag. A sample of the filtrate was pulled from the Biobag solution for a bioburden test. The Biobag was stored at 2-8° C. for at least 12 hours and then brought to room temperature and sterile filtered through 0.45 μm glass fiber prefilter+0.2 μm sterile filter at a pump speed of 700 mL/min to a 100 L Biobag. The sterile filtrate was then filled into amber 10R vials with a target 10.5 ml fill volume.
(§2) All formulations could be carried out at room temperature with mixing. The dissolution of TSC was generally completed within 10 minutes. […] The solution pH is around 8.7 and no further pH adjustment was needed. The final formulation has an osmolality around 270 mOsm.

Data set [2] in a line: Solubility of TSC in aqueous PEG400/NaCl/sucrose formulations. The data set is classed as physicochemical. Here is the method: as §1
Other exemplary TSC aqueous solutions were formulated with varying concentrations of PEG400, NaCl, sucrose and TSC concentrations.
as §2

Some results are limits rather than exact numbers.

As for `CC(/C=C/C=C(\C)C(=O)[O-])=C\C=C\C=C(C)\C=C\C=C(/C)C(=O)[O-].[Na+].[Na+]` [TSC, trans sodium crocetinate], the “dissolution of TSC, time to completion” value in data set [1] (all formulations, room temperature with mixing) is no more than 10 min. Also, the “TSC crash out of solution after storage” value in data set [1] (storage at 2-8° C.) is “No TSC was observed to crash out”. In addition, the “TSC crash out of the solution upon dilution” value in data set [1] (ten times dilution in 0.9% saline, 2 mg/mL formulation) is recorded as “No TSC was observed to crash out”. The “Observation (solubility)” value in data set [2] (PEG400 2% (v/v), NaCl 0%, sucrose 0%, TSC 2 mg/mL) was “soluble”; in data set [2] (PEG400 4% (v/v), NaCl 0%, sucrose 0%, TSC 4 mg/mL), “soluble”; in data set [2] (PEG400 4% (v/v), NaCl 0%, sucrose 3% (w/v), TSC 2 mg/mL), “soluble”; in data set [2] (PEG400 4% (v/v), NaCl 0.9% (w/w), sucrose 0%, TSC 2 mg/mL (first of two identical lines)), “partially soluble”; in data set [2] (PEG400 4% (v/v), NaCl 0.9% (w/w), sucrose 0%, TSC 2 mg/mL (second of two identical lines)), “soluble”; in data set [2] (PEG400 4% (v/v), NaCl 0.9% (w/w), sucrose 0%, TSC 4 mg/mL) it was “partially soluble”. Moreover, the “Observation (solubility)” value is “soluble” in data set [2] (PEG400 6% (v/v), NaCl 0%, sucrose 0%, TSC 4 mg/mL); “saturated with some” in data set [2] (PEG400 8% (v/v), NaCl 0%, sucrose 0%, TSC 8 mg/mL); “soluble” in data set [2] (PEG400 80% (v/v), NaCl 0% (w/w), sucrose 0% (w/v), TSC 20 mg/mL).
